For 15 compounds, IC50 results are on record in patent publication US11634447B2 (priority 2012, dated 2023).

This assay has as its system bacterial strain LF82 binding to the glycoprotein BSA-(Mannose)3. Nature of the assay: Bacterial Binding Assay (BBA). It counts as cell-based, Escherichia coli. The settings on record: read-out: Bacterial Binding Assay IC50, LF82/Luciferase strain binding to BSA-(Man)3 coated plates, luminescence. The essentials:
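Inhibition of LF82/luciferase E. coli adhesion is read as luminescence after washing off unbound cells. Compound and bacteria (10^7 per well) are co-incubated 40-75 min at room temperature on wells coated with 0.5-2 μg/mL BSA-(Man)3, with BSA-only wells as background; IC50 values derived.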
Turning to `CCCn1c2cc(C#C[C@H]3O[C@H](CO)[C@@H](O)[C@H](O)[C@@H]3O)ccc2c2ccc(C#C[C@H]3O[C@H](CO)[C@@H](O)[C@H](O)[C@@H]3O)cc21` [Compound 110, (2R,3S,4R,5S,6R)-2-(hydroxymethyl)-6-[2-[9-propyl-7-[2-[(2R,3S,4R,5S,6R)-3,4,5-trihydroxy-6-(hydroxymethyl)tetrahydropyran-2-yl]ethynyl]carbazol-2-yl]ethynyl]tetrahydropyran-3,4,5-triol], the IC50 came to 0.89 nM.

Take `OC[C@H]1O[C@H](C#Cc2ccc3oc4ccc(C#C[C@H]5O[C@H](CO)[C@@H](O)[C@H](O)[C@@H]5O)cc4c3c2)[C@@H](O)[C@@H](O)[C@@H]1O` [Compound 106, (2R,3S,4R,5S,6R)-2-(hydroxymethyl)-6-[2-[8-[2-[(2R,3S,4R,5S,6R)-3,4,5-trihydroxy-6-(hydroxymethyl)tetrahydropyran-2-yl]ethynyl]dibenzofuran-2-yl]ethynyl]tetrahydropyran-3,4,5-triol]: the IC50 stood at 7.9 nM.

For `OC[C@H]1O[C@H](C#Cc2ccc3c(c2)C2(CCNCC2)c2cc(C#C[C@H]4O[C@H](CO)[C@@H](O)[C@H](O)[C@@H]4O)ccc2-3)[C@@H](O)[C@@H](O)[C@@H]1O` [Compound 192, (2R,3S,4R,5S,6R)-2-(Hydroxymethyl)-6-[2-[7-[2-[(2R,3S,4R,5S,6R)-3,4,5-trihydroxy-6-(hydroxymethyl)tetrahydropyran-2-yl]ethynyl]spiro[fluorene-9,4piperidine]-2-yl]ethynyl]tetrahydropyran-3,4,5-triol], the IC50 worked out at 3.2 nM.

With `Cn1cc(C(=O)c2c(C#C[C@H]3O[C@H](CO)[C@@H](O)[C@H](O)[C@@H]3O)ccc3c2C2(CCNCC2)c2cc(C#C[C@H]4O[C@H](CO)[C@@H](O)[C@H](O)[C@@H]4O)ccc2-3)cn1` [Compound 245, [2,7-bis[2-[(2R,3S,4R,5S,6R)-3,4,5-trihydroxy-6-(hydroxymethyl)tetrahydropyran-2-yl]ethynyl]spiro[fluorene-9,4piperidine]-1yl]-(1-methylpyrazol-4-yl)methanone], the IC50 turned out to be 0.14 nM.

`OC[C@H]1O[C@H](C#Cc2ccc(C#C[C@H]3O[C@H](CO)[C@@H](O)[C@H](O)[C@@H]3O)c(OC(F)F)c2)[C@@H](O)[C@@H](O)[C@@H]1O` [Compound 92, (2R,3S,4R,5S,6R)-2-[2-[3-(difluoromethoxy)-4-[2-[(2R,3S,4R,5S,6R)-3,4,5-trihydroxy-6-(hydroxymethyl)tetrahydropyran-2-yl]ethynyl]phenyl]ethynyl]-6-(hydroxymethyl)tetrahydropyran-3,4,5-triol]: the IC50 was determined as 36 nM.

`OC[C@H]1O[C@H](C#Cc2ccc3c(c2)C(O)(c2ccccc2)c2cc(C#C[C@H]4O[C@H](CO)[C@@H](O)[C@H](O)[C@@H]4O)ccc2-3)[C@@H](O)[C@@H](O)[C@@H]1O` (stereo partly drawn) [Compound 167, (2R,3S,4R,5S,6R)-2-(hydroxymethyl)-6-[2-[9-hydroxy-9-phenyl-7-[2-[(2R,3S,4R,5S,6R)-3,4,5-trihydroxy-6-(hydroxymethyl)tetrahydropyran-2-yl]ethynyl]fluoren-2-yl]ethynyl]tetrahydropyran-3,4,5-triol]: the IC50 was 16 nM.

As for `CC(C)(c1ccc(C#C[C@H]2O[C@H](CO)[C@@H](O)[C@H](O)[C@@H]2O)cc1)c1ccc(C#C[C@H]2O[C@H](CO)[C@@H](O)[C@H](O)[C@@H]2O)cc1` [Compound 122, (2R,3S,4R,5S,6R)-2-(hydroxymethyl)-6-[2-[4-[1-methyl-1-[4-[2-[(2R,3S,4R,5S,6R)-3,4,5-trihydroxy-6-(hydroxymethyl)tetrahydropyran-2-yl]ethynyl]phenyl]ethyl]phenyl]ethynyl]tetrahydropyran-3,4,5-triol], the IC50 stood at 29 nM.

Regarding `COc1c(C#C[C@H]2O[C@H](CO)[C@@H](O)[C@H](O)[C@@H]2O)ccc2c(OC)c(C#C[C@H]3O[C@H](CO)[C@@H](O)[C@H](O)[C@@H]3O)ccc12` [Compound 125, (2R,3S,4R,5S,6R)-2-[2-[1,5-dimethoxy-6-[2-[(2R,3S,4R,5S,6R)-3,4,5-trihydroxy-6-(hydroxymethyl)tetrahydropyran-2-yl]ethynyl]-2-naphthyl]ethynyl]-6-(hydroxymethyl)tetrahydropyran-3,4,5-triol], the IC50 worked out at 54 nM.

Regarding `OC[C@H]1O[C@H](c2ccc(-c3ccc(-c4ccc([C@H]5O[C@H](CO)[C@@H](O)[C@H](O)[C@@H]5O)cc4)cc3)cc2)[C@@H](O)[C@@H](O)[C@@H]1O` [Compound 65], the IC50 was 55 nM.

On to `CCCCCCc1cc(C#C[C@H]2O[C@H](CO)[C@@H](O)[C@H](O)[C@@H]2O)c(CCCCCC)cc1C#C[C@H]1O[C@H](CO)[C@@H](O)[C@H](O)[C@@H]1O` [Compound 82, (2R,3S,4R,5S,6R)-2-[2-[2,5-dihexyl-4-[2-[(2R,3S,4R,5S,6R)-3,4,5-trihydroxy-6-(hydroxymethyl)tetrahydropyran-2-yl]ethynyl]phenyl]ethynyl]-6-(hydroxymethyl)tetrahydropyran-3,4,5-triol], for which the IC50 is 18 nM.

With `Cc1cccc(C(=O)c2c(C#C[C@H]3O[C@H](CO)[C@@H](O)[C@H](O)[C@@H]3O)ccc3c2C2(CCNCC2)c2cc(C#C[C@H]4O[C@H](CO)[C@@H](O)[C@H](O)[C@@H]4O)ccc2-3)n1` [Compound 239, [2,7-bis[2-[(2R,3S,4R,5S,6R)-3,4,5-trihydroxy-6-(hydroxymethyl)tetrahydropyran-2-yl]ethynyl]spiro[fluorene-9,4piperidine]-1yl]-(6-methyl-2-pyridyl)methanone], the IC50 is 0.35 nM.

As for `OC[C@H]1O[C@H](c2ccc(C#C[C@H]3O[C@H](CO)[C@@H](O)[C@H](O)[C@@H]3O)c(F)c2)[C@@H](O)[C@@H](O)[C@@H]1O` [Compound 144], the IC50 came to 235 nM.

Turning to `O=C1CCCN1CCn1c2cc(C#C[C@H]3O[C@H](CO)[C@@H](O)[C@H](O)[C@@H]3O)ccc2c2ccc(C#C[C@H]3O[C@H](CO)[C@@H](O)[C@H](O)[C@@H]3O)cc21` [Compound 190, 1-[2-[2,7-bis[2-[(2R,3S,4R,5S,6R)-3,4,5-trihydroxy-6-(hydroxymethyl)tetrahydropyran-2-yl]ethynyl]carbazol-9-yl]ethyl]pyrrolidin-2-one], the IC50 amounted to 1.1 nM.

In the case of `OC[C@H]1O[C@H](C#Cc2ccc3c(c2)C(F)(F)c2cc(C#C[C@H]4O[C@H](CO)[C@@H](O)[C@H](O)[C@@H]4O)ccc2-3)[C@@H](O)[C@@H](O)[C@@H]1O` [Compound 116, (2R,3S,4R,5S,6R)-2-[2-[9,9-difluoro-7-[2-[(2R,3S,4R,5S,6R)-3,4,5-trihydroxy-6-(hydroxymethyl)tetrahydropyran-2-yl]ethynyl]fluoren-2-yl]ethynyl]-6-(hydroxymethyl)tetrahydropyran-3,4,5-triol], the IC50 amounted to 8.1 nM.

`OC[C@H]1O[C@H](C#Cc2ccc(C#C[C@H]3O[C@H](CO)[C@@H](O)[C@H](O)[C@@H]3O)c3ccccc23)[C@@H](O)[C@@H](O)[C@@H]1O` [Compound 136, (2R,3S,4R,5S,6R)-2-(hydroxymethyl)-6-[2-[4-[2-[(2R,3S,4R,5S,6R)-3,4,5-trihydroxy-6-(hydroxymethyl)tetrahydropyran-2-yl]ethynyl]-1-naphthyl]ethynyl]tetrahydropyran-3,4,5-triol]: the IC50 is 145 nM.
